The results in this text go back to a melting point compilation (Tetko et al.; mined from patent text by program, amines drawn as free bases though some values may be those of a salt).

For `O=C1NCCN1N=Cc1ccccc1`, the melting point (as a rule, the temperature, or range, at which the solid turns liquid) was 201 to 206 °C.

`CC(C)(C)OC(=O)NCCNC(=O)c1nc(Cl)sc1-c1ccccc1` registered a melting point of 114 to 116 °C. Turning to `CCCCCCCCC(C)OC(=O)NC(C)(C=O)CCc1c[nH]c2ccccc12` (centres undefined), the melting point lay in the range of 178 to 179 °C. In turn, `Cc1nc(Nc2ccc3[nH]ccc3c2)c2sc(-c3ccccc3)cc2n1` gave a melting point of 205 to 210 °C. `CC1(c2ccccc2)C2=C(COC2=O)Nc2cc3c(cc21)OCO3` (centres undefined) returned a melting point above 260 °C.

The compound `COc1ccc(Nc2cccc(Cl)c2[N+](=O)[O-])cc1` gave a melting point of 73 to 74 °C. The value for `O=C(Oc1ccc2cc3cc(OC(=O)c4ccc(O)cc4)ccc3cc2c1)c1ccc(O)cc1` was 324 °C. Take `CC(C)N(Sc1nc2ccccc2s1)C(C)(C)C`: the melting point lay in the range of 68 to 70 °C. Then `COC(=O)N[C@@H](C(=O)O)c1ccccc1`, with 122 to 125 °C; and `Nc1c(-c2cc(Cl)ccc2O)nnn1-c1ccc(C(F)(F)F)cc1Cl`, with 74.5 to 77.5 °C. The compound `COC(=O)CCc1ccc(N2CCN(c3ccc(C(=N)NC(=O)OC)cc3)C2=O)cc1` came in with a melting point above 260 °C. The value for `CC(=O)Nc1nc2ncn(C)c(=S)n2n1` was above 300 °C. Then `Cc1c(N2C(=O)C[C@H](O)[C@@H]2C)ccc(C#N)c1Cl`, with 172 to 173 °C; and `CC(=O)N1C(=O)NC2(C1=O)C(=O)N(Cc1ccc(Cl)c(Cl)c1)c1ccccc12` (centres undefined), with 185 to 187 °C; and `COc1cc(C2CCN(C3COC3)CC2)ccc1Nc1ncc2ccc(-c3ccccc3OC)n2n1`, with 78 to 85 °C. The compound `COc1ccc2c(c1)C(=NO)c1c-2c(N2CCNCC2)nc2ccccc12` had a melting point of 146 to 147 °C. As to `CC(CO)C1CCC2C3CCC4=CC(=O)CCC4(C)C3CCC12C` (centres undefined), the melting point was 140 to 141 °C. `CC(=O)ONC(=N)c1ccc(-c2cccc(-c3nc4ccc(C(=N)NOC(C)=O)cc4[nH]3)n2)cc1` came in with a melting point of 150 to 153 °C. As to `CCOC(=O)c1c(C)cc2cnc(-c3ccccc3Cl)nc2c1C`, the melting point fell in the range of 69.5 to 70.5 °C. In the case of `CCCCCC(Oc1ccc(C2=CCCCCC2)cc1)C(=O)O` (centres undefined), the melting point was in the range of 69 to 71 °C.

`Cc1nc2cc(-c3ccco3)ccc2o1` came in with a melting point of 60 °C.

For the compound `Cc1ccc(S(=O)(=O)OCCCOc2ccc([N+](=O)[O-])c(CS(=O)(=O)c3cccc4ccccc34)c2)cc1`, the melting point lay in the range of 162 to 164 °C. `O=C1Nc2cc(Cl)ccc2Oc2cscc21`: the melting point fell in the range of 263 to 265 °C. For `O=C(O)C(=O)c1cnsc1`, the melting point lay in the range of 145 to 148 °C.

Regarding `CC(C)c1c(-c2ccccc2)[nH]c2nccnc12`, the melting point lay within 216 to 218 °C. Then `CCCc1nccn1N=Cc1cc(C(C)(C)C)c(O)c(C(C)(C)C)c1`, with 160 to 161 °C; and `CC(C)(O)c1cc(Br)cnc1N`, with 107 to 108 °C. For `O=c1[nH][nH]c(=O)c2c(O)c3ccc(Br)cc3nc12`, the melting point came out at 278 °C. The value for `Brc1ccccc1-n1cnc2cnc3ccc(-c4ccccc4)cc3c21` was 128 to 129 °C.

As for `COC(=O)CCc1c[nH]c2ccccc12`, the melting point was 162 to 164 °C. Take `O=C1Cc2cc3c(cc2C(c2cccc([N+](=O)[O-])c2)=NN1)OCO3`: the melting point lay within 251 to 253 °C. Regarding `CCOC(=O)C1=C(C)NN=C(CC)C1c1cccc2ccccc12` (centres undefined), the melting point is 122 °C. Turning to `CC(=O)c1ccc(S)cc1`, the melting point stood at 71 °C. Then `CC(C(=O)O)c1ccc2oc(-c3cccnc3)nc2c1` (centres undefined), with 197 to 200 °C; and `Cc1cc(C#N)cn2cc(-c3ccc(Br)o3)nc12`, with 204 to 205 °C; and `C=CCOc1ccc2c(c1)OCC1c3ccccc3OC21` (centres undefined), with 72 to 74 °C.

`CC(C)COC(=O)NC1=NCC(c2ccccc2)N1C` (centres undefined): the melting point was in the range of 103 to 104 °C. Compound `Cc1cccc(Nc2cc(Nc3cccc(OCCCN(C)C)c3)ncn2)c1` displayed a melting point of 142 to 144 °C. The value for `O=C(Cl)c1sc2ccc(Oc3ccccc3)cc2c1Cl` was 117 to 119 °C; that for `Oc1ncc(-c2cccc(C(F)(F)F)c2)cn1` was 283 to 285 °C; that for `COc1ccc(COCc2ccc(OC)cc2)cc1` was 58 to 59 °C. `CS(=O)(=O)c1ccc(-c2cnn(-c3ccc(F)c(F)c3)c(=O)c2Cc2ccccc2)cc1` had a melting point of 166 to 168 °C. Consider `Cc1c(C(=O)Nc2ccc(N3CCNCC3)c(C#N)c2)cnn1-c1ccc(F)cc1`, for which the melting point lay within 218 to 219 °C. Then `CCCC(=O)N[C@@H]1CCc2cccc(N3CCN(C)CC3)c2C1`, with 131 to 132 °C. Then `O=C(O)c1cc(-c2ccc(C(F)(F)F)cc2)cnc1O`, with 305 to 315 °C; and `COC(=O)COc1c(OC)cc(C(=O)C#Cc2cc(-c3cccs3)c(OC)cc2OC)cc1OC`, with 153 to 155 °C; and `CC(C)(C)c1cc(C=C2SC(NC#N)=NC2=O)cc(C(C)(C)C)c1O`, with 240 to 242 °C. Then `O=C(c1ccccc1)c1c(O)c(=O)ccn1CCO`, with 195 to 200 °C; and `N#CCN1CCc2ccccc2C(Oc2ccc(C(F)(F)F)cc2)C1` (centres undefined), with 125 to 129 °C. Compound `COc1cc2c(c(OC)c1OC)C(=O)CC2` displayed a melting point of 114 to 115 °C. `N#Cc1ccc(Nc2nc(Oc3c(F)cccc3F)ccc2[N+](=O)[O-])cc1` came in with a melting point of 234 to 236 °C. Then `CCOC(=O)Nc1cc([N+](=O)[O-])cc(CC)c1C(=O)OCC`, with 47 to 48 °C; and `CC(C)c1nn(-c2ccc(C(F)(F)F)cn2)cc1CCCOc1cccc(CC(=O)O)c1`, with 82 to 83 °C; and `CC(=O)ONC(=N)c1ccc(NC(=O)CCCC(=O)Nc2ccc(C(=N)NOC(C)=O)cc2)cc1`, with 225 to 228 °C. In turn, `O=C(O)c1cccc(Oc2cccc(-c3nn(Cc4ccc(C(F)(F)P(=O)(O)O)c(Cl)c4)c(=Nc4ccc(Cl)c(Cl)c4)s3)c2)c1` showed a melting point of 212 to 215 °C.

As to `CN(CCO)c1cc(C(c2cc(F)ccc2F)S(=O)(=O)c2ccc(Cl)cc2)c(Cl)cn1` (centres undefined), the melting point was in the range of 88 to 89 °C. `CCCCn1c(=O)n(CCCC2CO2)c(=O)c2c1ncn2C` (centres undefined) displayed a melting point of 76 to 78 °C. For the compound `CC(C)OC(=O)Cc1nc(-c2ccccc2)oc1-c1ccsc1`, the melting point was 62 to 63 °C. Then `O=C(Cn1ccnc1[N+](=O)[O-])NCCO`, with 164 to 165 °C; and `CCN(CC)c1ccc2nc3c4ccccc4c(=Nc4nc5ccc(OC)cc5s4)cc-3oc2c1`, with 197 to 198 °C. Take `CC(C)(C)CCn1c(=O)c(=NNc2ccccc2)c(=O)n(-c2ccccc2F)c2ccccc21`: the melting point was in the range of 112 to 114 °C. Compound `O=C1C(=O)N(c2ccccc2)C(=O)N1c1ccccc1` gave a melting point of 203 °C. With `O=c1c2ccc(Cl)cc2[nH]c2c(O)nn(-c3ccc(OC(F)(F)F)cc3)c(=O)c12`, the melting point is 320 to 322 °C.

For the compound `CC(C)c1ccc2c(c1)c(Sc1ccccc1)c(CC(=O)O)n2Cc1ccc(Cl)cc1`, the melting point lay within 151 to 153 °C.
